The values below come from patent US20260364101A1, “OLEUROPEIN IN THE MANAGEMENT OF CANCER” (FUNDACIÓN MIGUEL SERVET, priority 2023, published 2026).

In one data set the test system is m-MDSC. Nature of the data set: quantitative proteomics and Ingenuity Pathway Analysis of m-MDSC. It counts as cell-based, mouse. On the procedure: Immunosuppressive myeloid cell subsets resembling tumor-infiltrating subsets (g-MDSCs, m-MDSCs and TAMs) were differentiated from mouse bone marrow following published procedures using conditioning medium produced by LLC tumor cells stably expressing GMCSF and MCSF cells. g- and m-MDSCs were purified using the myeloid-derived suppressor cell isolation kit (Miltenyi Biotec, Bergisch, Germany) according to manufacturer's recommendations. MDSCs and TAMs were seeded with 500 nM BML-275 or 50 μM oleuropein and incubated for seven days.
A unique proteomic experiment was carried out with five biological replicates per sample (m-MDSC, g-MDSC and TAM). Cells were homogenized in a lysis buffer containing 7 M urea, 2 M thiourea 50 mM DTT. The homogenates were spun down at 14000 g for 1 h at 15 °C. Before proteomic analysis, protein extracts were diluted with Laemmli sample buffer in 100 μL and loaded into a 0.75 mm thick polyacrylamide gel with a 4% stacking gel casted over a 12.5% resolving gel. The run was stopped as soon as the front entered 3 mm into the resolving gel so that the whole proteome became concentrated in the stacking/resolving gel interface. Bands were stained with Coomassie Brilliant Blue, excised from the gel and protein enzymatic cleavage was carried out with trypsin (Promega; 1:20, w/w) at 37 °C for 16 h as previously described. Purification and concentration of peptides was performed using C18 Zip Tip Solid Phase Extraction (Millipore).
Peptide mixtures were separated by reverse phase chromatography using an UltiMate 3000 UHLPC System (Thermo Scientific) fitted with an Aurora packed emitter column (lonopticks, 25 cm×75 μm ID, 1.6 μm C18). Samples were first loaded for desalting and concentration into an Acclaim PepMap column (ThermoFisher, 0.5 cm×300 μm ID, 5 μm C18) packed with the same chemistry as the separating column. Mobile phases were 100% water 0.1% formic acid (FA) (buffer A) and 100% Acetonitrile 0.1% FA (buffer B). Column gradient was developed in a 120 min two step gradient from 5% B to 20% B in 90 min and 20% B to 32% B in 30 min. Column was equilibrated in 95% B for 10 min and 5% B for 20 min. During the whole process, the precolumn was in line with the column and the flow maintained all along the gradient at 300 nl/min. The column temperature was maintained at 40 °C using an integrated column oven (PRSO-V2, Sonation, Biberach, Germany) and interfaced online with the Orbitrap Exploris 480 MS. Spray voltage were set to 2 kV, funnel RF level at 40, and heated capillary temperature at 300 °C. For DDA experiments full MS resolutions were set to […] at m/z 200 and full MS AGC target was set to Standard with an IT mode Auto. Mass range was set to 375-1500. AGC target value for fragment spectra was set to Standard with a resolution of 15,000 and 3 seconds for cycle time. The intensity threshold was kept at 8E3. Isolation width was set at 1.4 m/z. Normalized collision energy was set at 30%. All data were acquired in centroid mode using positive polarity and peptide match was set to off, and isotope exclusion was on.
Raw files were processed with MaxQuant v1.6.17.0 using the integrated Andromeda Search engine. All data were searched against a target/decoy version of the mouse Uniprot Reference Proteome with March 2021 release. First search peptide tolerance was set to 20 ppm, main search peptide tolerance was set to 4.5 ppm. Fragment mass tolerance was set to 20 ppm. Trypsin was specified as enzyme, […] carbamidomethylation of cysteine was specified as fixed modification and peptide N-terminal acetylation, oxidation of methionine, deamidation of asparagine and glutamine and pyro-glutamate formation from glutamine and glutamate were considered variable modifications with a total of two variable modifications per peptide. […]

The conditions of data set [1]: to elenolic acid and glucose; cited from earlier work.

In the case of `C/C=C1/[C@H](O[C@@H]2O[C@H](CO)[C@@H](O)[C@H](O)[C@H]2O)OC=C(C(=O)OC)[C@H]1CC(=O)OCCc1ccc(O)c(O)c1` [oleuropein], in the data set on m-MDSC (IPA, m-MDSC), the BAG2 signalling entry is reported as “activated”, the EIF2 signalling result is recorded as “activated”, the FAT10 signalling entry was “down-modulated” and the “NRF2-mediated oxidative stress response” value is given as “downregulated”. In the data set on m-MDSC (IPA, m-MDSC), the “granzyme A signalling” value is listed as “activated”, the “production of proinflammatory cytokines” value is on record as “down-modulated”, the sirtuin signalling entry was “activated” and the “upstream regulator PTEN” value is “increase”. Further, the upstream regulator methylprednisolone result in the data set with m-MDSC (IPA, m-MDSC) was “decrease”. For the same molecule, the “effect over m-MDSC intracellular regulatory pathways” value in the data set on m-MDSC (m-MDSC) was “potent effect over m-MDSC intracellular regulatory pathways”. The molecule also had a proteins differentially regulated with m-MDSC (m-MDSC treated with oleuropein, data not shown) of 912 proteins. Also, the “decomposition by acid or enzymic hydrolysis” value in data set [1] is on record as “decomposes easily”.
